# In ChEMBL document CHEMBL1156849, “Synthesis, immunosuppressive activity and structure-activity relationship study of a new series of 4-N-piperazinyl-thieno[2,3-d]pyrimidine analogues” (Bioorg Med Chem Lett, 2010):
# Test system: Lymphocyte
# Assay: Immunosuppressive activity in lymphocytes by mixed lymphocyte reaction assay
# Format: functional, cell-based
row,Structure (SMILES),IC50 [nM]
1,Nc1nc(N2CCN(C(=O)CCc3ccccc3)CC2)c2cc(-c3ccc(F)cc3)sc2n1,6990
2,Nc1nc(N2CCN(C(=O)COc3ccc(F)cc3)CC2)c2ccsc2n1,66
3,Nc1nc(N2CCN(C(=O)COc3ccc(Br)cc3)CC2)c2ccsc2n1,320
4,Cc1cccc(NC(=O)N2CCN(c3nc(N)nc4sccc34)CC2)c1,930
5,Nc1nc(N2CCN(C(=O)Nc3ccc(Cl)cc3)CC2)c2ccsc2n1,6700
6,CC(C)N(C(=O)N1CCN(c2nc(N)nc3sc(-c4ccc(F)cc4)cc23)CC1)C(C)C,8200
7,CN(C(=O)CN1CCN(c2nc(N)nc3sccc23)CC1)c1ccccc1,8120
8,Nc1nc(N2CCN(C(=O)C3CCCCC3)CC2)c2cc(-c3ccc(F)cc3)sc2n1,> 10000
9,Nc1nc(N2CCN(C(=O)COc3ccc(Cl)cc3)CC2)c2ccsc2n1,330
10,Nc1nc(N2CCN(C(=O)COc3ccccc3)CC2)c2ccsc2n1,780
11,Cc1cccc(OCC(=O)N2CCN(c3nc(N)nc4sccc34)CC2)c1,210
12,COc1ccc(OCC(=O)N2CCN(c3nc(N)nc4sccc34)CC2)cc1,72
13,Nc1nc(N2CCN(C(=O)c3cccnc3)CC2)c2cc(-c3ccc(F)cc3)sc2n1,> 10000
14,Nc1nc(N2CCN(CCOc3ccccc3)CC2)c2ccsc2n1,9640
15,C/C=C/C[C@@H](C)[C@@H](O)[C@H]1C(=O)N[C@@H](CC)C(=O)N(C)CC(=O)N(C)[C@@H](CC(C)C)C(=O)N[C@@H](C(C)C)C(=O)N(C)[C@@H](CC(C)C)C(=O)N[C@@H](C)C(=O)N[C@H](C)C(=O)N(C)[C@@H](CC(C)C)C(=O)N(C)[C@@H](CC(C)C)C(=O)N(C)[C@@H](C(C)C)C(=O)N1C [CYCLOSPORINE],54
